From US11220504B2, “Pyrrolo[3,2-d] pyrimidine derivatives for the treatment of viral infections and other diseases” (JANSSEN SCIENCES IRELAND UNLIMITED COMPANY, priority 2012, dated 2022)

Key:
human TLR7 = target: T1, human TLR7 (Homo sapiens, UniProt Q9NYK1); test: TLR7 cellular reporter assay (HEK293, NFκB-luc); format: cell-based; conditions: HEK293 cells transfected with CMV-TLR7 and NFκB-luc, 6 hours incubation; lowest effective concentration
T1 construct: expressed in transfected cells; host or cells: HEK293 cells, transient transfection with CMV-TLR7 plasmid and NFκB-luc plasmid
T1 sequence (Q9NYK1 27-1049): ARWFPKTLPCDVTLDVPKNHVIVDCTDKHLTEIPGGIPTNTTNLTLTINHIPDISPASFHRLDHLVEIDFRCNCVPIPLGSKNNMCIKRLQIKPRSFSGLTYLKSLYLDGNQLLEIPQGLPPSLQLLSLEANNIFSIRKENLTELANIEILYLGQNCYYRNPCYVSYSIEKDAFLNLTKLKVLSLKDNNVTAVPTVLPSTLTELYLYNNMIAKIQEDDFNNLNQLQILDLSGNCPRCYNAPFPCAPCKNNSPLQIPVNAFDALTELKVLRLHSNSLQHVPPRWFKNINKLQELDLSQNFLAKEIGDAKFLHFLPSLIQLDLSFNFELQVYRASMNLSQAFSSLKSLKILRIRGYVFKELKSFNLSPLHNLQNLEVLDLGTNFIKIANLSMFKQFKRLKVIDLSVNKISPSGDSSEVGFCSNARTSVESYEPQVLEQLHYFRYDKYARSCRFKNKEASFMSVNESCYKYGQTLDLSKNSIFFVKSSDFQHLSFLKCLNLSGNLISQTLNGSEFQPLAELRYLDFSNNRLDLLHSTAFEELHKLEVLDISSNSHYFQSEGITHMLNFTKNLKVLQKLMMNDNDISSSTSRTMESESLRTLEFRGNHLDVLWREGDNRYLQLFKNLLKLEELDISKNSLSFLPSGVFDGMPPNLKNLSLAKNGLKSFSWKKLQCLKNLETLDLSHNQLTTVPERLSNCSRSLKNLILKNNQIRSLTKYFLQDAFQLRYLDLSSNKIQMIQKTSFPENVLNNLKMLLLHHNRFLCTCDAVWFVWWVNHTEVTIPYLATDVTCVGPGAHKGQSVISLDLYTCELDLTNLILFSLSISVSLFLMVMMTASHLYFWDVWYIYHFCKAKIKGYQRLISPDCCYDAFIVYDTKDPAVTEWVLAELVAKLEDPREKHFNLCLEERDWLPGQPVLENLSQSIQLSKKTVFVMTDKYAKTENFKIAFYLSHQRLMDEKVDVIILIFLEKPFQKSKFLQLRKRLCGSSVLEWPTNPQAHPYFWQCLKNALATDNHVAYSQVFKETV
Protocol: (§1) The ability of compounds to activate human TLR7 and/or TLR8 was assessed in a cellular reporter assay using HEK293 cells transiently transfected with a TLR7 or TLR8 expression vector and NFκB-luc reporter construct.
(§2) Briefly, HEK293 cells were grown in culture medium (DMEM supplemented with 10% FCS and 2 mM Glutamine). […] Thirty microliters of cells were then dispensed into each well in 384-well plates, where 10 μL of compound in 4% DMSO was already present. Following 6 hours incubation at 37° C., 5% CO2, the luciferase activity was determined by adding 15 μL of Steady Lite Plus substrate (Perkin Elmer) to each well and readout performed on a ViewLux ultraHTS microplate imager (Perkin Elmer). Dose response curves were generated from measurements performed in quadruplicates.

human TLR8 = target: T2, human TLR8 (Homo sapiens, UniProt Q9NR97); test: TLR8 cellular reporter assay (HEK293, NFκB-luc); format: cell-based; conditions: HEK293 cells transfected with CMV-TLR8 and NFκB-luc, 6 hours incubation; lowest effective concentration
T2 construct: expressed in transfected cells; host or cells: HEK293 cells, transient transfection with TLR8 plasmid and NFκB-luc plasmid
T2 sequence (Q9NR97 27-1041): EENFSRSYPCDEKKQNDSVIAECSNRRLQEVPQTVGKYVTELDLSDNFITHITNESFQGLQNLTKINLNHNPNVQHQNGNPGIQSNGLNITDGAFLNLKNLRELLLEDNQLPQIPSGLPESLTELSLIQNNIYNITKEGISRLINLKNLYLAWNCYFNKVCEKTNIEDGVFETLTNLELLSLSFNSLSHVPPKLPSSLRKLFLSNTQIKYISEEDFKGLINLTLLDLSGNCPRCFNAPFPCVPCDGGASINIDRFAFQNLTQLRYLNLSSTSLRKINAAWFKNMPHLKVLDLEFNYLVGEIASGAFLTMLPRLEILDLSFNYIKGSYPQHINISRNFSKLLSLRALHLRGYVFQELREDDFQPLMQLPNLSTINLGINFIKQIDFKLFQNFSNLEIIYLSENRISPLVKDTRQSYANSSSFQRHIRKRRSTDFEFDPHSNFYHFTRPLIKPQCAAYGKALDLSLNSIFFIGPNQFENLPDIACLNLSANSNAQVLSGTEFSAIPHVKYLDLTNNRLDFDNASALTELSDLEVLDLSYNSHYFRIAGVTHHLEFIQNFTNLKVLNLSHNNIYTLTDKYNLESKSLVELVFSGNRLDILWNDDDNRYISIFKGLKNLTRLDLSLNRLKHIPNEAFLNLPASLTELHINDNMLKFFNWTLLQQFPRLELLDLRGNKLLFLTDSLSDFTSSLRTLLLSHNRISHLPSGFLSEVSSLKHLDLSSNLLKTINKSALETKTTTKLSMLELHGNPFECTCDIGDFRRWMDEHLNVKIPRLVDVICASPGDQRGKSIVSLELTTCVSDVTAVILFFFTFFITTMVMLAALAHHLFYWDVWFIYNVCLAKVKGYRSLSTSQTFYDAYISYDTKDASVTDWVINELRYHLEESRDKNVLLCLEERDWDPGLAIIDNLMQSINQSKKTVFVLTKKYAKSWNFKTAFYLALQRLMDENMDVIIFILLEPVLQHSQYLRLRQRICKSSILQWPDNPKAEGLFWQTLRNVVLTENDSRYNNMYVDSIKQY
Protocol: as §1, §2

[1] = test system: interferon-stimulated responsive elements (ISRE); test: Activation of ISRE promoter elements by conditioned media from PBMC (HEK-ISREluc); format: cell-based, human; conditions: Homo sapiens; conditioned media from PBMC transferred to HEK-ISREluc cells, 24 hours; lowest effective concentration; read-out: PBMC LEC
Protocol: The potential of compounds to induce IFN-I was also evaluated by measuring the activation of interferon-stimulated responsive elements (ISRE) by conditioned media from PBMC. The ISRE element of sequence […] (SEQ. ID NO:1) is highly responsive to the STAT1-STAT2-IRF 9 transcription factor, activated upon binding of IFN-I to their receptor IFNAR (Clontech, PT3372-5W). […] A HEK293 cell line stably transfected with pISRE-Luc (HEK-ISREluc) was established to profile of the conditioned PBMC cell culture media.
Briefly, PBMCs were prepared from buffy coats of at least two donors using a standard Ficoll centrifugation protocol. Isolated PBMCs were resuspended in RPMI medium supplemented with 10% human AB serum and 2×10^5 cells/well were dispensed into 384-well plates containing compounds (70 μL total volume). After overnight incubation, 10 μL of supernatant was transferred to 384-well plates containing 5×10^3 HEK-ISREluc cells/well in 30 μL (plated the day before). Following 24 hours of incubation, activation of the ISRE elements was measured by assaying luciferase activity using 40 μL/well Steady Lite Plus substrate (Perkin Elmer) and measured with ViewLux ultraHTS microplate imager (Perkin Elmer). The stimulating activity of each compound on the HEK-ISREluc cells was reported as LEC value, defined as the compound concentration applied to the PBMCs resulting in a luciferase activity at least two fold above the standard deviation of the assay. The LEC in turn indicates the degree of ISRE activation on transfer of a defined amount of PBMC culture medium. Recombinant interferon α-2a (Roferon-A) was used as a standard control compound.

Row | Compound | TLR7 LEC (human TLR7) | TLR8 LEC (human TLR8) | minimal effective concentration [1]
1 | COCCn1ccc2nc(N)nc(N[C@H](C)c3ccccn3)c21 (single isomer, unassigned) [Compound 151] | 12.8 µM | >25 µM | 2.58 µM
2 | COCCn1ccc2nc(N)nc(N[C@@H](C)c3ccccn3)c21 (single isomer, unassigned) [Compound 152] | 0.73 µM | >25 µM | 0.142 µM
3 | C[C@@H](Nc1nc(N)nc2ccn(Cc3ccccn3)c12)c1ccccn1 (single isomer, unassigned) [Compound 194] | – | >25 µM | –
4 | C[C@H](Nc1nc(N)nc2ccn(Cc3ccccn3)c12)c1ccccn1 (single isomer, unassigned) [Compound 195] | – | >25 µM | –
5 | CCCCNc1nc(N)nc2ccn(Cc3ccccc3Oc3ccccc3)c12 [Compound 2] | 0.50 µM | >25 µM | 0.6 µM
6 | CCCCNc1nc(N)nc2ccn(Cc3cc(F)ccc3Br)c12 [Compound 3] | 2.6 µM | >25 µM | 1.2 µM
7 | CCCCNc1nc(N)nc2ccn(CCOC)c12 [Compound 4] | 0.60 µM | 13.5 µM | 0.4 µM
8 | CCCCNc1nc(N)nc2ccn(Cc3cccc(F)c3)c12 [Compound 5] | 0.30 µM | >25 µM | 0.2 µM
9 | CCCCNc1nc(N)nc2ccn(Cc3ccccc3Br)c12 [Compound 6] | 1.3 µM | >25 µM | 0.7 µM
10 | Cc1cc(CNc2nc(N)nc3ccn(Cc4ccccn4)c23)no1 [Compound 89] | – | >25 µM | –
11 | COCCNc1nc(N)nc2ccn(Cc3ccccn3)c12 [Compound 119] | – | >25 µM | –
12 | Cc1cc(CNc2nc(N)nc3ccn(Cc4ccc(C(F)(F)F)cn4)c23)no1 [Compound 122] | – | >25 µM | –
13 | COc1ccc(Cn2ccc3nc(N)nc(NCc4cc(C)on4)c32)nc1OC [Compound 124] | – | >22 µM | –
14 | Cc1cc(CNc2nc(N)nc3ccn(Cc4ncccc4F)c23)no1 [Compound 125] | – | >25 µM | –
15 | Nc1nc(NCc2cc(C3CC3)on2)c2c(ccn2Cc2ccccn2)n1 [Compound 126] | – | >25 µM | –
16 | CC(C)c1cc(CNc2nc(N)nc3ccn(Cc4ccccn4)c23)no1 [Compound 127] | – | >25 µM | –
17 | COc1cccc(Cn2ccc3nc(N)nc(NCc4cc(C)on4)c32)n1 [Compound 131] | – | 24.6 µM | –
18 | Nc1nc(NCc2nccs2)c2c(ccn2Cc2ccccn2)n1 [Compound 136] | – | >25 µM | –
19 | COCCCNc1nc(N)nc2ccn(Cc3ccccn3)c12 [Compound 138] | – | >25 µM | –

Row | Compound | TLR7 LEC (human TLR7) | TLR8 LEC (human TLR8) | minimal effective concentration [1]
20 | CCOCCNc1nc(N)nc2ccn(Cc3ccccn3)c12 [Compound 140] | – | >25 µM | –
21 | CCC(O)CNc1nc(N)nc2ccn(Cc3ccccn3)c12 (centres unmarked) [Compound 141] | – | >25 µM | –
22 | Nc1nc(NCc2ncco2)c2c(ccn2Cc2ccccn2)n1 [Compound 142] | – | >25 µM | –
23 | Cc1cc(CNc2nc(N)nc3ccn(Cc4ccc(F)cn4)c23)no1 [Compound 144] | – | >25 µM | –
24 | Cc1cc(CNc2nc(N)nc3ccn(Cc4cc(C(F)(F)F)ccn4)c23)no1 [Compound 145] | – | >25 µM | –
25 | Nc1nc(NCc2ccon2)c2c(ccn2Cc2ccccn2)n1 [Compound 155] | – | >25 µM | –
26 | Cc1cc(CNc2nc(N)nc3ccn(Cc4ncccc4Cl)c23)no1 [Compound 156] | – | >25 µM | –
27 | Cc1cc(CNc2nc(N)nc3ccn(Cc4cc(Cl)ccn4)c23)no1 [Compound 158] | – | >25 µM | –
28 | COCCNc1nc(N)nc2ccn(CC(=O)N(C)C)c12 [Compound 166] | 4.88 µM | – | –
29 | COc1cccnc1Cn1ccc2nc(N)nc(NCc3cc(C)on3)c21 [Compound 170] | – | >25 µM | –
30 | COc1ccc(Cn2ccc3nc(N)nc(NCc4cc(C)on4)c32)nc1 [Compound 171] | 0.02 µM | >25 µM | –
31 | Cc1nc(CNc2nc(N)nc3ccn(Cc4ccccn4)c23)cs1 [Compound 174] | – | >25 µM | –
32 | Cc1cc(CNc2nc(N)nc3ccn(Cc4ccccn4)c23)on1 [Compound 184] | – | >25 µM | –
33 | Cc1ccc(CNc2nc(N)nc3ccn(Cc4ccccn4)c23)nc1 [Compound 189] | – | >25 µM | –
34 | CC(Nc1nc(N)nc2ccn(Cc3ccccn3)c12)c1ccccn1 (centres unmarked) [Compound 190] | – | >25 µM | –
35 | Cc1cnc(CNc2nc(N)nc3ccn(Cc4ccccn4)c23)o1 [Compound 191] | – | >25 µM | –
36 | Cc1cnc(CNc2nc(N)nc3ccn(Cc4ccccn4)c23)s1 [Compound 207] | – | 23 µM | –
37 | Cc1coc(CNc2nc(N)nc3ccn(Cc4ccccn4)c23)n1 [Compound 214] | – | >25 µM | –
38 | Cc1nnc(CNc2nc(N)nc3ccn(Cc4ccccn4)c23)o1 [Compound 216] | – | >25 µM | –
